Assay [1] concerns the target T1, Cholesteryl ester transfer protein (Homo sapiens, UniProt P11597).
T1 sequence (P11597 whole entry): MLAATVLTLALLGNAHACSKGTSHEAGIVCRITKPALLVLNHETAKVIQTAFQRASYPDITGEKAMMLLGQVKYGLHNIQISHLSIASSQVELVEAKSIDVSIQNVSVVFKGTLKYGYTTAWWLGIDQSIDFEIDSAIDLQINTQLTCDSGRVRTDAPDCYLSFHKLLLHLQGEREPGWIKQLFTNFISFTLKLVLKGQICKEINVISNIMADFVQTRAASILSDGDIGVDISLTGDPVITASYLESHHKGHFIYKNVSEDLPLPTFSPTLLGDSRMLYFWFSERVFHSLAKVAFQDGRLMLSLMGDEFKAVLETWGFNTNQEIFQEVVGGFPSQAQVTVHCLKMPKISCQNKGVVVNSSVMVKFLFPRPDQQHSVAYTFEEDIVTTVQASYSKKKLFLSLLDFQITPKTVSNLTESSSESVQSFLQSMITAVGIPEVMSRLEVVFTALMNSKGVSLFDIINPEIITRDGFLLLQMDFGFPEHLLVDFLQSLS
The assay is described as follows: Inhibition of recombinant human CETP mediated transfer of [3H]cholesteryl ester from HDL to LDL.

Assay [2] deals with T1, Cholesteryl ester transfer protein. Put plainly: In vitro human CETP inhibitory activity assessed by measuring the rate of [3H]cholesteryl ester ([3H]CE) from HDL donor particles to LDL acceptor particles using human serum by serum transfer assay.

With `Cc1ccc(CN(CC(O)C(F)(F)F)c2cccc(Oc3ccccc3)c2)cc1-c1ccco1` (configuration not stated), the IC50 in assay [1] stood at 3.96 µM.

Take `OC(CN(Cc1ccc(F)c(-c2ccco2)c1)c1cccc(Oc2ccccc2)c1)C(F)(F)F` (configuration not stated): the IC50 in assay [1] came to 0.72 µM.

With `OC(CN(Cc1cccc(-c2cccs2)c1)c1cccc(Oc2ccccc2)c1)C(F)(F)F` (configuration not stated), the IC50 in assay [2] stood at 83 µM; in assay [1] it was 1.12 µM.

On to `OC(CN(Cc1cccc(-c2cccnc2)c1)c1cccc(Oc2ccccc2)c1)C(F)(F)F` (configuration not stated), for which, in assay [1], the IC50 came out at 14.3 µM.

Regarding `OC(CN(Cc1cccc(-c2ccccc2)c1)c1cccc(Oc2ccccc2)c1)C(F)(F)F` (configuration not stated), the IC50 in assay [2] worked out at 47 µM; in assay [1] it was 4.42 µM.

For the origin of these results see ChEMBL document CHEMBL1134106, “Novel heteroaryl replacements of aromatic 3-tetrafluoroethoxy substituents in trifluoro-3-(tertiaryamino)-2-propanols as potent inhibitors of cholesteryl ester transfer protein” (Bioorg Med Chem Lett, 2001).
